In ChEMBL document CHEMBL3352308, “Identification of constrained peptidomimetic chemotypes as HIV protease inhibitors” (Eur J Med Chem, 2014):

Legend:
[1] = target: Protease (Human immunodeficiency virus 1) (UniProt Q9YQ12); test: Inhibition of HIV-1 protease using DABCYL-Abu-Ser-Gln-Asn-Tyr-Pro-Ile-Val-Gln-EDANS as substrate preincubated at 10 uM for 15 mins before substrate addition measured over 15 mins by fluorometric assay
[2] = target: Protease (Human immunodeficiency virus 1) (UniProt Q9YQ12); test: Inhibition of HIV-1 protease using DABCYL-Abu-Ser-Gln-Asn-Tyr-Pro-Ile-Val-Gln-EDANS as substrate preincubated at 1 uM for 15 mins before substrate addition measured over 15 mins by fluorometric assay
[3] = target: Protease (Human immunodeficiency virus 1, UniProt Q9YQ12); test: Inhibition of HIV-1 protease using DABCYL-Abu-Ser-Gln-Asn-Tyr-Pro-Ile-Val-Gln-EDANS as substrate preincubated for 15 mins before substrate addition measured over 15 mins by fluorometric assay
Sequence of Protease (Q9YQ12 whole entry): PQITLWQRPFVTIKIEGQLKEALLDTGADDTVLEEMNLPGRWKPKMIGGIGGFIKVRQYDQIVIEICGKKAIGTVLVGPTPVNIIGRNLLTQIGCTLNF

Sequence of Protease (Human immunodeficiency virus 1) (Q9YQ12 as listed by the source): as the sequence (Q9YQ12 whole entry) above

Row | inhibition [1] | inhibition [2] | IC50 [3] | Structure (SMILES)
1 | 34% |  |  | O=C(NC1CCCCC1)[C@@H]1O[C@H]2CN(Cc3ccccc3)C(=O)[C@@H]1O2
2 | 47% |  |  | O=C(NCCCO)[C@@H]1O[C@H]2CN(Cc3ccccc3)C(=O)[C@@H]1O2
3 | 43% |  |  | CC(C)C[C@H](C(=O)O)N1C[C@@H]2O[C@@H](C(=O)N3CCCCC3)[C@@H](O2)C1=O
4 | 31% |  |  | O=C(NCCc1ccccc1)[C@@H]1O[C@H]2CN(Cc3ccccc3)C(=O)[C@@H]1O2
5 | 63% |  |  | CC(C)C[C@@H](C(=O)O)N1C[C@@H]2O[C@@H](C(=O)N3CCCCC3)[C@@H](O2)C1=O
6 | 75% | 45% | 5.6 µM | O=C([C@@H]1O[C@@H]2O[C@H]1C(=O)N(Cc1ccccc1)[C@H]2Cc1ccccc1)N1CCN(CCO)CC1
7 | 68% | 69% | 1.9 µM | O=C(NC1CCCCC1)[C@@H]1O[C@@H]2O[C@H]1C(=O)N(Cc1ccccc1)[C@H]2Cc1ccccc1
8 | 58% |  |  | O=C([C@@H]1O[C@@H]2O[C@H]1C(=O)N(Cc1ccccc1)[C@@H]2Cc1ccccc1)N1CCC[C@H]1CO
9 | 43% |  |  | CCCC[C@@H](C(=O)OC)N1C[C@@H]2O[C@@H](C(=O)N3CCCCC3)[C@@H](O2)C1=O
10 | 36% |  |  | COC(=O)[C@H](CC(C)C)N1C[C@@H]2O[C@@H](C(=O)N3CCN(Cc4ccccc4)CC3)[C@@H](O2)C1=O
11 | 59% |  |  | O=C([C@@H]1O[C@@H]2O[C@H]1C(=O)N(Cc1ccccc1)[C@@H]2Cc1ccccc1)N1CCCCC1
12 | 56% |  |  | CCCNC(=O)[C@@H]1O[C@@H]2O[C@H]1C(=O)N(Cc1ccccc1)[C@H]2Cc1ccccc1
13 | 46% |  |  | CCCC[C@@H](C(=O)OC)N1C[C@H]2O[C@H](C(=O)N3CCCCC3)[C@H](O2)C1=O
14 | 66% |  |  | CCCCNC(=O)[C@@H]1O[C@@]2(c3ccccc3)CN(C(c3ccccc3)c3ccccc3)C(=O)[C@@H]1O2
15 | 49% |  |  | CNCCNC(=O)[C@@H]1O[C@@H]2O[C@H]1C(=O)N(Cc1ccccc1)[C@H]2Cc1ccccc1
16 | 47% |  |  | O=C([C@H]1O[C@@H]2CN(Cc3ccccc3)C(=O)[C@H]1O2)N1CCN(CCO)CC1

Row | inhibition [1] | inhibition [2] | IC50 [3] | Structure (SMILES)
17 | 57% |  |  | COC(=O)[C@H](CC(C)C)N1C[C@@H]2O[C@@H](C(=O)N[C@H](CO)CC(C)C)[C@@H](O2)C1=O
18 | 81% |  |  | C[C@@H](CO)NC(=O)[C@@H]1O[C@@H]2O[C@H]1C(=O)N(Cc1ccccc1)[C@@H]2Cc1ccccc1
19 | 82% | 55% | 2.6 µM | CC(C)C[C@@H](CO)NC(=O)[C@@H]1O[C@H]2CN(Cc3ccccc3)C(=O)[C@@H]1O2
20 | 80% |  |  | CC(C)C[C@@H](CO)NC(=O)[C@@H]1O[C@@H]2O[C@H]1C(=O)N(Cc1ccccc1)[C@@H]2Cc1ccccc1
21 | 78% | 60% | 0.7 µM | C#CCNC(=O)[C@@H]1O[C@@H]2O[C@H]1C(=O)N(Cc1ccccc1)[C@H]2Cc1ccccc1
22 | 67% | 33% | 7.5 µM | CCCCNC(=O)[C@@H]1O[C@@H]2O[C@H]1C(=O)N(Cc1ccccc1)[C@H]2Cc1ccccc1
23 | 77% |  |  | O=C1[C@@H]2O[C@H](CN1Cc1ccccc1)O[C@H]2C(=O)N1CCC[C@@H]1CO
24 | 90% | 54% | 1.5 µM | C[C@@H](CO)NC(=O)[C@@H]1O[C@H]2CN(Cc3ccccc3)C(=O)[C@@H]1O2
25 | 57% |  |  | CCOC(=O)N1CCN(C(=O)[C@@H]2O[C@H]3CN(Cc4ccccc4)C(=O)[C@@H]2O3)CC1
26 | 21% |  |  | O=C([C@@H]1O[C@H]2CN(Cc3ccccc3)C(=O)[C@@H]1O2)N1CCCCC1
27 | 75% |  |  | CC(C)CCNC(=O)[C@@H]1O[C@@H]2O[C@H]1C(=O)N(Cc1ccccc1)[C@H]2Cc1ccccc1
28 | 30% |  |  | CC[C@H](C)[C@@H](C(=O)OC)N1C[C@@H]2O[C@@H](C(=O)N3CCCCC3)[C@@H](O2)C1=O
29 | 70% |  |  | COC(=O)[C@H](CC(C)C)N1C[C@@H]2O[C@@H](C(=O)N3CCN(CCc4ccccc4)CC3)[C@@H](O2)C1=O
30 | 17% |  |  | O=C([C@@H]1O[C@@H]2O[C@H]1C(=O)N(Cc1ccccc1)[C@@H]2Cc1ccccc1)N1CCOCC1
31 | 33% |  |  | CNCCNC(=O)[C@@H]1O[C@@]2(c3ccccc3)CN(C(c3ccccc3)c3ccccc3)C(=O)[C@@H]1O2
32 | 71% |  |  | O=C([C@@H]1O[C@@]2(c3ccccc3)CN(C(c3ccccc3)c3ccccc3)C(=O)[C@@H]1O2)N1CCN(CCO)CC1

Row | Structure (SMILES) | inhibition [1] | inhibition [2] | IC50 [3]
33 | CC(C)CC(=O)N[C@H](C(=O)N[C@H](C(=O)N[C@@H](CC(C)C)[C@@H](O)CC(=O)N[C@@H](C)C(=O)N[C@@H](CC(C)C)[C@@H](O)CC(=O)O)C(C)C)C(C)C | 74% | 56% | 
